From the supplement of paper PMC10307832

Experiments:
Assay in all cases: relative viability (nuclei count vs DMSO), 5 days (fraction); higher = more cells survive
[1] = test system: NCI-H1650
In short: (§1)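 Lung cancer cell lines, seeded in 1536-well plates, were treated the following day by pin tool with a single drug or with five library-drug doses (not always all listed) in √10 steps on top of a fixed anchor-drug dose. Cells were fixed and nuclei stained in one step after 5 days, and nuclei were counted. Relative viability is the nuclei count for treated wells divided by that for vehicle wells, reported as medians of duplicate plates.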

[2] = test system: NCI-H2087
In short: as §1

[3] = test system: NCI-H1651
In short: as §1

[4] = test system: COR-L23
In short: as §1

[5] = test system: COR-L 105
In short: as §1

[6] = test system: HCC-44
In short: as §1

[7] = test system: NCI-H647
In short: as §1

[8] = test system: NCI-H1975
In short: as §1

[9] = test system: EPLC-272H
In short: as §1

[10] = test system: H3255
In short: as §1

[11] = test system: EKVX
In short: as §1

[12] = test system: NCI-H661
In short: as §1

[13] = test system: NCI-H1792
In short: as §1

[14] = test system: HCC-827
In short: as §1

[15] = test system: NCI-H727
In short: as §1

[16] = test system: HCC-15
In short: as §1

[17] = test system: LCLC-103H
In short: as §1

[18] = test system: 201T
In short: as §1

[19] = test system: NCI-H358
In short: as §1

[20] = test system: NCI-H520
In short: as §1

[21] = test system: NCI-H1437
In short: as §1

[22] = test system: UMC-11
In short: as §1

O=C(O)CCCCC(CCSCc1ccccc1)SCc1ccccc1 (centres undefined) [CPI-613] + CC(=O)Nc1cccc(-n2c(=O)n(C3CC3)c(=O)c3c(Nc4ccc(I)cc4F)n(C)c(=O)c(C)c32)c1 [Trametinib] (partner 0.02 µM)
relative viability ([1]; first compound 5 µM): 0.546 | relative viability ([1]; first compound 15.81 µM): 0.548 | relative viability ([1]; first compound 50 µM): 0.537 | relative viability ([1]; first compound 158.11 µM): 0.168 | relative viability ([1]; first compound 500 µM): 0.0145 | relative viability ([2]; first compound 5 µM): 0.207 | relative viability ([2]; first compound 15.81 µM): 0.16 | relative viability ([2]; first compound 50 µM): 0.159 | relative viability ([2]; first compound 158.11 µM): 0.0653 | relative viability ([2]; first compound 500 µM): 0.003 | relative viability ([3]; first compound 5 µM): 0.771 | relative viability ([3]; first compound 15.81 µM): 0.771 | relative viability ([3]; first compound 50 µM): 0.848 | relative viability ([3]; first compound 158.11 µM): 0.783 | relative viability ([3]; first compound 500 µM): 0.765 | relative viability ([4]; first compound 5 µM): 0.651 | relative viability ([4]; first compound 15.81 µM): 0.524 | relative viability ([4]; first compound 50 µM): 0.63 | relative viability ([4]; first compound 158.11 µM): 0.198 | relative viability ([4]; first compound 500 µM): 0.0522 | relative viability ([5]; first compound 5 µM): 0.459 | relative viability ([5]; first compound 15.81 µM): 0.437 | relative viability ([5]; first compound 50 µM): 0.479 | relative viability ([5]; first compound 158.11 µM): 0.355 | relative viability ([5]; first compound 500 µM): 0.225 | relative viability ([6]; first compound 5 µM): 1.04 | relative viability ([6]; first compound 15.81 µM): 1.03 | relative viability ([6]; first compound 50 µM): 1.08 | relative viability ([6]; first compound 158.11 µM): 0.649 | relative viability ([6]; first compound 500 µM): 0.62 | relative viability ([7]; first compound 5 µM): 0.378 | relative viability ([7]; first compound 15.81 µM): 0.388 | relative viability ([7]; first compound 50 µM): 0.38 | relative viability ([7]; first compound 158.11 µM): 0.0824 | relative viability ([7]; first compound 500 µM): 0.0504 | relative viability ([8]; first compound 5 µM): 0.395 | relative viability ([8]; first compound 15.81 µM): 0.355 | relative viability ([8]; first compound 50 µM): 0.272 | relative viability ([8]; first compound 158.11 µM): 0.348 | relative viability ([8]; first compound 500 µM): 0.0712 | relative viability ([9]; first compound 5 µM): 0.233 | relative viability ([9]; first compound 15.81 µM): 0.232 | relative viability ([9]; first compound 50 µM): 0.29 | relative viability ([9]; first compound 158.11 µM): 0.222 | relative viability ([9]; first compound 500 µM): 0.268 | relative viability ([10]; first compound 5 µM): 0.61 | relative viability ([10]; first compound 15.81 µM): 0.6 | relative viability ([10]; first compound 50 µM): 0.654 | relative viability ([10]; first compound 158.11 µM): 0.62 | relative viability ([10]; first compound 500 µM): 0.598 | relative viability ([11]; first compound 5 µM): 0.287 | relative viability ([11]; first compound 15.81 µM): 0.272 | relative viability ([11]; first compound 50 µM): 0.343 | relative viability ([11]; first compound 500 µM): 0.325 | relative viability ([12]; first compound 5 µM): 0.528 | relative viability ([12]; first compound 15.81 µM): 0.532 | relative viability ([12]; first compound 50 µM): 0.541 | relative viability ([12]; first compound 158.11 µM): 0.263 | relative viability ([12]; first compound 500 µM): 0.133 | relative viability ([13]; first compound 5 µM): 0.381 | relative viability ([13]; first compound 15.81 µM): 0.372 | relative viability ([13]; first compound 50 µM): 0.355 | relative viability ([13]; first compound 158.11 µM): 0.291 | relative viability ([13]; first compound 500 µM): 0.0761 | relative viability ([14]; first compound 5 µM): 0.518 | relative viability ([14]; first compound 15.81 µM): 0.555 | relative viability ([14]; first compound 50 µM): 0.571 | relative viability ([14]; first compound 158.11 µM): 0.518 | relative viability ([14]; first compound 500 µM): 0.483 | relative viability ([15]; first compound 5 µM): 0.393 | relative viability ([15]; first compound 15.81 µM): 0.389 | relative viability ([15]; first compound 50 µM): 0.396 | relative viability ([15]; first compound 158.11 µM): 0.374 | relative viability ([15]; first compound 500 µM): 0.339 | relative viability ([16]; first compound 5 µM): 0.387 | relative viability ([16]; first compound 15.81 µM): 0.363 | relative viability ([16]; first compound 50 µM): 0.363 | relative viability ([16]; first compound 158.11 µM): 0.167 | relative viability ([16]; first compound 500 µM): 0.0261 | relative viability ([17]; first compound 5 µM): 0.67 | relative viability ([17]; first compound 15.81 µM): 0.662 | relative viability ([17]; first compound 50 µM): 0.727 | relative viability ([17]; first compound 158.11 µM): 0.422 | relative viability ([17]; first compound 500 µM): 0.372 | relative viability ([18]; first compound 5 µM): 0.709 | relative viability ([18]; first compound 15.81 µM): 0.701 | relative viability ([18]; first compound 50 µM): 0.668 | relative viability ([18]; first compound 158.11 µM): 0.421 | relative viability ([18]; first compound 500 µM): 0.408 | relative viability ([19]; first compound 5 µM): 0.132 | relative viability ([19]; first compound 15.81 µM): 0.133 | relative viability ([19]; first compound 50 µM): 0.132 | relative viability ([19]; first compound 158.11 µM): 0.0921 | relative viability ([19]; first compound 500 µM): 0.0459 | relative viability ([20]; first compound 5 µM): 0.691 | relative viability ([20]; first compound 15.81 µM): 0.708 | relative viability ([20]; first compound 50 µM): 0.552 | relative viability ([20]; first compound 158.11 µM): 0.16 | relative viability ([20]; first compound 500 µM): 0.0957 | relative viability ([21]; first compound 5 µM): 0.49 | relative viability ([21]; first compound 15.81 µM): 0.431 | relative viability ([21]; first compound 50 µM): 0.467 | relative viability ([21]; first compound 158.11 µM): 0.0999 | relative viability ([21]; first compound 500 µM): 0.0568 | relative viability ([22]; first compound 5 µM): 0.632 | relative viability ([22]; first compound 15.81 µM): 0.703 | relative viability ([22]; first compound 50 µM): 0.437 | relative viability ([22]; first compound 158.11 µM): 0.495 | relative viability ([22]; first compound 500 µM): 0.0937
